# From PMC6946680, “Modulation of brain cation-Cl^− cotransport via the SPAK kinase inhibitor ZT-1a” (Nature Communications, 2020)
# How the values were obtained:
# Experiment in all cases: Kinase profiling panel
# Assay type in all cases: biochemical
# DYRK2 = tested on: DYRK2
# Experimental: (§1) Supplementary Table 2. ZT-1a kinase profiling data6.
# (§2) ZT-1a was tested at 10 and 1 µM against a panel of 140 recombinant kinases in an enzymatic
# (§3) activity-based assay performed by the International Centre for Kinase Profiling in the MRC
# (§4) Protein Phosphorylation and Ubiquitylation Unit. Values represent % residual kinase activity
# MSK1 = tested on: MSK1
# Experimental: as §1, §2, §3, §4
# CLK2 = tested on: CLK2
# Experimental: as §1, §2, §3, §4
# DYRK1A = tested on: DYRK1A
# Experimental: as §1, §2, §3, §4
# TSSK1 = tested on: TSSK1
# Experimental: as §1, §2, §3, §4
# JNK3 = tested on: JNK3
# Experimental: as §1, §2, §3, §4
# TBK1 = tested on: TBK1
# Experimental: as §1, §2, §3, §4
# ASK1 = tested on: ASK1
# Experimental: as §1, §2, §3, §4
# MAPKAP-K2 = tested on: MAPKAP-K2
# Experimental: as §1, §2, §3, §4
# TIE2 = tested on: TIE2
# Experimental: as §1, §2, §3, §4
# IKKe = tested on: IKKe
# Experimental: as §1, §2, §3, §4
# TTK = tested on: TTK
# Experimental: as §1, §2, §3, §4
# BRSK1 = tested on: BRSK1
# Experimental: as §1, §2, §3, §4
# IR = tested on: IR
# Experimental: as §1, §2, §3, §4
# ERK8 = tested on: ERK8
# Experimental: as §1, §2, §3, §4
# CSK = tested on: CSK
# Experimental: as §1, §2, §3, §4
# TGFBR1 = tested on: TGFBR1
# Experimental: as §1, §2, §3, §4
# MAP4K5 = tested on: MAP4K5
# Experimental: as §1, §2, §3, §4
# STK33 = tested on: STK33
# Experimental: as §1, §2, §3, §4
# PAK6 = tested on: PAK6
# Experimental: as §1, §2, §3, §4
# PKCa = tested on: PKCa
# Experimental: as §1, §2, §3, §4
# EIF2AK3 = tested on: EIF2AK3
# Experimental: as §1, §2, §3, §4
# CDK9-Cyclin T1 = tested on: CDK9-Cyclin T1
# Experimental: as §1, §2, §3, §4
# MARK2 = tested on: MARK2
# Experimental: as §1, §2, §3, §4
# p38b MAPK = tested on: p38b MAPK
# Experimental: as §1, §2, §3, §4
# SIK3 = tested on: SIK3
# Experimental: as §1, §2, §3, §4
# MARK4 = tested on: MARK4
# Experimental: as §1, §2, §3, §4
# p38g MAPK = tested on: p38g MAPK
# Experimental: as §1, §2, §3, §4
# PKD1 = tested on: PKD1
# Experimental: as §1, §2, §3, §4
# EPH-B4 = tested on: EPH-B4
# Experimental: as §1, §2, §3, §4
# RSK2 = tested on: RSK2
# Experimental: as §1, §2, §3, §4
# MST4 = tested on: MST4
# Experimental: as §1, §2, §3, §4
# ERK1 = tested on: ERK1
# Experimental: as §1, §2, §3, §4
# Aurora A = tested on: Aurora A
# Experimental: as §1, §2, §3, §4
# TTBK1 = tested on: TTBK1
# Experimental: as §1, §2, §3, §4
# VEG-FR = tested on: VEG-FR
# Experimental: as §1, §2, §3, §4
# HIPK3 = tested on: HIPK3
# Experimental: as §1, §2, §3, §4
# MKK2 = tested on: MKK2
# Experimental: as §1, §2, §3, §4
# EPH-B2 = tested on: EPH-B2
# Experimental: as §1, §2, §3, §4
# MLK3 = tested on: MLK3
# Experimental: as §1, §2, §3, §4
# HIPK2 = tested on: HIPK2
# Experimental: as §1, §2, §3, §4
# PKBa = tested on: PKBa
# Experimental: as §1, §2, §3, §4
# TAK1 = tested on: TAK1
# Experimental: as §1, §2, §3, §4
# S6K1 = tested on: S6K1
# Experimental: as §1, §2, §3, §4
compound,measurement,setting,value
"Cc1cc(C(C#N)c2ccc(Cl)cc2)c(Cl)cc1NC(=O)c1cc(Cl)ccc1O (stereo not shown) [ZT-1a, 5-chloro-N-(5-chloro-4-((4-chlorophenyl)(cyano)methyl)-2-methylphenyl)-2-hydroxybenzamide]",% residual kinase activity,DYRK2; 1 µM,111±15%
same,% residual kinase activity,DYRK2; 10 µM,97±10%
same,% residual kinase activity,MSK1; 1 µM,114±6%
same,% residual kinase activity,MSK1; 10 µM,112±14%
same,% residual kinase activity,CLK2; 1 µM,68±12%
same,% residual kinase activity,CLK2; 10 µM,33±45%
same,% residual kinase activity,DYRK1A; 1 µM,119±7%
same,% residual kinase activity,DYRK1A; 10 µM,103±1%
same,% residual kinase activity,TSSK1; 1 µM,99±2%
same,% residual kinase activity,TSSK1; 10 µM,74±6%
same,% residual kinase activity,JNK3; 1 µM,63±15%
same,% residual kinase activity,JNK3; 10 µM,60±10%
same,% residual kinase activity,TBK1; 1 µM,119±10%
same,% residual kinase activity,TBK1; 10 µM,94±3%
same,% residual kinase activity,ASK1; 1 µM,101±3%
same,% residual kinase activity,ASK1; 10 µM,100±11%
same,% residual kinase activity,MAPKAP-K2; 1 µM,91±13%
same,% residual kinase activity,MAPKAP-K2; 10 µM,13±7%
same,% residual kinase activity,TIE2; 1 µM,139±74%
same,% residual kinase activity,TIE2; 10 µM,73±11%
same,% residual kinase activity,IKKe; 1 µM,87±13%
same,% residual kinase activity,IKKe; 10 µM,59±5%
same,% residual kinase activity,TTK; 1 µM,104±2%
same,% residual kinase activity,TTK; 10 µM,91±5%
same,% residual kinase activity,BRSK1; 1 µM,108±14%
same,% residual kinase activity,BRSK1; 10 µM,88±22%
same,% residual kinase activity,IR; 1 µM,105±2%
same,% residual kinase activity,IR; 10 µM,86±13%
same,% residual kinase activity,ERK8; 1 µM,104±11%
same,% residual kinase activity,ERK8; 10 µM,63±3%
same,% residual kinase activity,CSK; 1 µM,96±8%
same,% residual kinase activity,CSK; 10 µM,106±29%
same,% residual kinase activity,TGFBR1; 1 µM,63±9%
same,% residual kinase activity,TGFBR1; 10 µM,77±5%
same,% residual kinase activity,MAP4K5; 1 µM,95±28%
same,% residual kinase activity,MAP4K5; 10 µM,76±9%
same,% residual kinase activity,STK33; 1 µM,114±7%
same,% residual kinase activity,STK33; 10 µM,100±5%
same,% residual kinase activity,PAK6; 1 µM,69±2%
same,% residual kinase activity,PAK6; 10 µM,75±4%
same,% residual kinase activity,PKCa; 1 µM,97±4%
same,% residual kinase activity,PKCa; 10 µM,83±2%
same,% residual kinase activity,EIF2AK3; 1 µM,114±2%
same,% residual kinase activity,EIF2AK3; 10 µM,100±3%
same,% residual kinase activity,CDK9-Cyclin T1; 1 µM,104±0%
same,% residual kinase activity,CDK9-Cyclin T1; 10 µM,108±1%
same,% residual kinase activity,MARK2; 1 µM,103±8%
same,% residual kinase activity,MARK2; 10 µM,89±15%
same,% residual kinase activity,p38b MAPK; 1 µM,124±1%
same,% residual kinase activity,p38b MAPK; 10 µM,124±0%
same,% residual kinase activity,SIK3; 1 µM,104±9%
same,% residual kinase activity,SIK3; 10 µM,88±0%
same,% residual kinase activity,MARK4; 1 µM,68±8%
same,% residual kinase activity,MARK4; 10 µM,59±9%
same,% residual kinase activity,p38g MAPK; 1 µM,100±11%
same,% residual kinase activity,p38g MAPK; 10 µM,100±6%
same,% residual kinase activity,PKD1; 1 µM,89±0%
same,% residual kinase activity,PKD1; 10 µM,79±10%
same,% residual kinase activity,EPH-B4; 1 µM,100±8%
same,% residual kinase activity,EPH-B4; 10 µM,151±33%
same,% residual kinase activity,RSK2; 1 µM,116±5%
same,% residual kinase activity,RSK2; 10 µM,101±3%
same,% residual kinase activity,MST4; 1 µM,63±10%
same,% residual kinase activity,MST4; 10 µM,63±0%
same,% residual kinase activity,ERK1; 1 µM,107±16%
same,% residual kinase activity,ERK1; 10 µM,109±18%
same,% residual kinase activity,Aurora A; 1 µM,73±19%
same,% residual kinase activity,Aurora A; 10 µM,65±1%
same,% residual kinase activity,TTBK1; 1 µM,119±5%
same,% residual kinase activity,TTBK1; 10 µM,102±2%
same,% residual kinase activity,VEG-FR; 1 µM,113±10%
same,% residual kinase activity,VEG-FR; 10 µM,88±28%
same,% residual kinase activity,HIPK3; 1 µM,84±3%
same,% residual kinase activity,HIPK3; 10 µM,76±2%
same,% residual kinase activity,MKK2; 1 µM,126±2%
same,% residual kinase activity,MKK2; 10 µM,81±27%
same,% residual kinase activity,EPH-B2; 1 µM,77±2%
same,% residual kinase activity,EPH-B2; 10 µM,81±8%
same,% residual kinase activity,MLK3; 1 µM,119±11%
same,% residual kinase activity,MLK3; 10 µM,114±3%
same,% residual kinase activity,HIPK2; 1 µM,90±14%
same,% residual kinase activity,HIPK2; 10 µM,91±4%
same,% residual kinase activity,PKBa; 1 µM,104±1%
same,% residual kinase activity,PKBa; 10 µM,91±4%
same,% residual kinase activity,TAK1; 1 µM,117±22%
same,% residual kinase activity,TAK1; 10 µM,103±5%
same,% residual kinase activity,S6K1; 1 µM,119±10%
same,% residual kinase activity,S6K1; 10 µM,81±2%
